In brackets after ≈: the same amount, converted by molar mass.
Assays:
CTX-M15 = CTX-M15 (Escherichia coli, UniProt Q9EXV5); experiment: In vitro enzyme inhibition assay (nitrocefin hydrolysis), CTX-M15; assay type: biochemical; conditions: nitrocefin 50µM, 10mM HEPES pH 7.5; numeric value
Experimental: (§1) Compound dilution was performed in DMSO.

[1] = tested on: NTBC096.1 (K. pneumoniae strain expressing OXA-181 and SHV-11); experiment: Meropenem potentiation, broth micro-dilution MIC, strain NTBC096.1; assay type: cell-based
[2] = tested on: NTBC091.1 (E. coli strain expressing KPC-2, TEM-1); experiment: Meropenem potentiation, broth micro-dilution MIC, strain NTBC091.1; assay type: cell-based; conditions: for MIC mero + 4 µg/mL inhibitor: NTBC091.1, MIC of meropenem with 4 µg/mL of the labelled compound; for MIC of combination with meropenem compared with the combination of meropenem and avibactam: strain NTBC091.1
AmpC = experiment: In vitro enzyme inhibition assay (nitrocefin hydrolysis), AmpC; assay type: biochemical; conditions: nitrocefin 100µM, 10mM HEPES pH 7.5; banded; read-out: Amp-C mean IC50
Experimental: as §1

[3] = tested on: NTBC093 (E. cloacae strain expressing KPC-2, TEM-1); experiment: Meropenem potentiation, broth micro-dilution MIC, strain NTBC093; assay type: cell-based; conditions: for MIC mero + 4 µg/mL inhibitor: NTBC093, MIC of meropenem with 4 µg/mL of the labelled compound, banded
[4] = tested on: clinical strains of Enterobacteriaceae that are resistant to betalactam antibiotics (produce OXA variants of SBL enzymes); experiment: Cumulative MIC against large panel of resistant clinical strains (Figure 1); assay type: cell-based; conditions: at an MIC of 1 µg/mL, Example 10 in combination with meropenem
From the text: The data is presented in Figure 1 in the standard cumulative MIC fashion.

[5] = tested on: NTBC189 (K. pneumoniae strain expressing TEM-OSBL(b), CTX-M-14, OXA-48(c)); experiment: Meropenem potentiation, broth micro-dilution MIC, strain NTBC189; assay type: cell-based
[6] = tested on: NTBC099 (K. pneumoniae strain expressing KPC-3, SHV-11 and TEM-1); experiment: microbe, parasite or virus in culture; assay type: cell-based; conditions: Klebsiella pneumoniae, read-out: MIC mero, µg/mL, no inhibitor
[7] = tested on: panel of 48 A. baumannii strains that are resistant to betalactam antibiotics (produces OXA variants of SBL enzymes); experiment: Cumulative MIC against panel of 48 resistant strains (Figure 2); assay type: cell-based; conditions: in the presence of 16 µg/mL of each inhibitor, Example 10 in combination with meropenem
From the text: The data is presented in Figure 2 in the standard cumulative MIC fashion.

[8] = Klebsiella pneumoniae, read-out: MIC mero, µg/mL, no inhibitor

CTX-M15, sequence (Q9EXV5 29-291, species assumed): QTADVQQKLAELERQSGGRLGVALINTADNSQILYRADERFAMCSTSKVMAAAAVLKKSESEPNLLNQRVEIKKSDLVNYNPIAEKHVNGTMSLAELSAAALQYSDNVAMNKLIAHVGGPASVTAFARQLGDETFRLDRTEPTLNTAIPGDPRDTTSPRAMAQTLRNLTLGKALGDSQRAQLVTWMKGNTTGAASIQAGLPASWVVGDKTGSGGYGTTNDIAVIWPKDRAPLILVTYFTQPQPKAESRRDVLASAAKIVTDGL

Row | Structure (SMILES) | MIC mero + 4 µg/mL inhibitor ([2]; banded) | IC50 (AmpC) [nM] | MIC mero + 4 µg/mL inhibitor [3] | further results
1 | NC(=O)[C@@H]1CC[C@@H]2CN1C(=O)N2OS(=O)(=O)O [Avibactam, avibactam] |  |  |  | IC50 (CTX-M15): 1.4 nM; MIC mero + 4 µg/mL inhibitor ([1]; NTBC096.1, MIC of meropenem with 4 µg/mL of the labelled compound, numeric): 1(B) µg/mL; MIC mero + 4 µg/mL inhibitor ([2]; numeric): 0.06 (A) µg/mL
2 | O=C1N2C[C@@H](CC[C@H]2C(F)(F)F)N1OS(=O)(=O)[O-].[Na+] [Example 1, Sodium (2S, 5R)-7-oxo-2-(trifluoromethyl)-1,6-diazabicyclo[3.2.1]octan-6-yl sulfate] | (A) (MIC < 1 µg/mL (A)) | < 10 |  | MIC mero + 4 µg/mL inhibitor ([2]; numeric): 0.03 µg/mL; MIC of combination with meropenem compared with the combination of meropenem and avibactam [2]: lower
3 | O=C1N2C[C@@H](CC[C@H]2C(F)F)N1OS(=O)(=O)[O-].[Na+] [Example 2, Sodium (2S, 5R)-7-oxo-2-(difluoromethyl)-1,6-diazabicyclo[3.2.1]octan-6-yl sulfate] | (A) (MIC < 1 µg/mL (A)) | 10 to 40 |  | MIC mero + 4 µg/mL inhibitor ([2]; numeric): 0.03 µg/mL; MIC of combination with meropenem compared with the combination of meropenem and avibactam [2]: lower
4 | O=C1N2C[C@@H](CC[C@H]2C(Cl)Cl)N1OS(=O)(=O)[O-].[Na+] [Example 3, Sodium (2S,5R)-2-(dichloromethyl)-7-oxo-1,6-diazabicyclo[3.2.1]octan-6-yl sulfate] | (A) (MIC < 1 µg/mL (A)) | 40 to 60 | (A) (MIC < 1 µg/mL (A)) | 
5 | O=C1N2C[C@@H](CC[C@H]2CF)N1OS(=O)(=O)[O-].[Na+] [Example 4, Sodium (2S, 5R)-2-(fluoromethyl)-7-oxo-1,6-diazabicyclo[3.2.1]octan-6-yl sulphate] | (A) (MIC < 1 µg/mL (A)) | < 10 | (A) (MIC < 1 µg/mL (A)) | 
6 | CC(F)(F)[C@@H]1CC[C@@H]2CN1C(=O)N2OS(=O)(=O)[O-].[Na+] [Example 5, Sodium (2S, 5R)-2-(1,1-difluoroethyl)-7-oxo-1,6-diazabicyclo[3.2.1]octan-6-yl sulphate] | (A) (MIC < 1 µg/mL (A)) | 40 to 60 | (A) (MIC < 1 µg/mL (A)) | 
7 | O=C1N2C[C@@H](CC[C@H]2CCl)N1OS(=O)(=O)[O-].[Na+] [Example 6, Sodium (2S, 5R)-2-(chloromethyl)-7-oxo-1,6-diazabicyclo[3.2.1]octan-6-yl sulphate] | (A) (MIC < 1 µg/mL (A)) | 10 to 40 | (A) (MIC < 1 µg/mL (A)) | 
8 | O=C1N2C[C@@H](CC[C@H]2SC(F)(F)F)N1OS(=O)(=O)[O-].[Na+] [Example 7, Sodium (2R, 5R)-7-oxo-2-[(trifluoromethyl)sulfanyl]-1,6-diazabicyclo[3.2.1]octan-6-yl sulphate] | (A) (MIC < 1 µg/mL (A)) | 40 to 60 | (B) (MIC = 1 or 2 µg/mL (B)) | 
9 | O=C1N2C[C@@H](CC[C@H]2COC(F)(F)F)N1OS(=O)(=O)[O-].[Na+] [Example 8, Sodium (2S, 5R)-7-oxo-2-[(trifluoromethoxy)methyl]-1,6-diazabicyclo[3.2.1]octan-6-yl sulphate] | (A) (MIC < 1 µg/mL (A)) | 40 to 60 | (A) (MIC < 1 µg/mL (A)) | 
10 | O=C1N2C[C@@H](CC[C@H]2C(F)(F)c2nccs2)N1OS(=O)(=O)[O-].[Na+] [Example 9, Sodium (2S, 5R)-2-[difluoro(1,3-thiazol-2-yl)methyl]-7-oxo-1,6-diazabicyclo[3.2.1]octan-6-yl sulphate] | (A) (MIC < 1 µg/mL (A)) | < 10 | (A) (MIC < 1 µg/mL (A)) | 
11 | O=C1N2C[C@@H](CC[C@H]2F)N1OS(=O)(=O)[O-].[Na+] [Example 10, Sodium (2R,5R)-2-fluoro-7-oxo-1,6-diazabicyclo[3.2.1]octan-6-yl sulfate] | (A) (MIC < 1 µg/mL (A)) | 10 to 40 | (A) (MIC < 1 µg/mL (A)) | MIC of combination with meropenem compared with the combination of meropenem and avibactam ([1]; strain NTBC096.1): lower; fraction of strains susceptible [4]: over 90%; MIC of combination with meropenem compared with the combination of meropenem and avibactam ([3]; strain NTBC093): similar; MIC of combination with meropenem compared with the combination of meropenem and avibactam [2]: lower; MIC of combination with meropenem compared with the combination of meropenem and avibactam ([5]; strain NTBC189): lower
12 | O=C1N2C[C@@H](CC[C@@H]2F)N1OS(=O)(=O)[O-].[Na+] [Example 11, Sodium (2S, 5R)-2-fluoro-7-oxo-1,6-diazabicyclo [3.2.1] octan-6-yl sulfate] | (A) (MIC < 1 µg/mL (A)) | > 60 | (B) (MIC = 1 or 2 µg/mL (B)) | 
13 | O=C1N2C[C@@H](CC[C@H]2Cl)N1OS(=O)(=O)[O-].[Na+] [Example 12, Sodium (2R,5R)-2-chloro-7-oxo-1,6-diazabicyclo[3.2.1]octan-6-yl sulfate] | (A) (MIC < 1 µg/mL (A)) | < 10 | (A) (MIC < 1 µg/mL (A)) | MIC of combination with meropenem compared with the combination of meropenem and avibactam [2]: lower
14 | C[C@@H](O)[C@H]1C(=O)N2C(C(=O)O)=C(S[C@@H]3CN[C@H](C(=O)N(C)C)C3)[C@H](C)[C@H]12 [meropenem, reference compound] |  |  |  | MIC [6]: 256 µg/mL (≈ 668 µM); MIC [1, 8]: 32 µg/mL; fraction of strains susceptible [4]: 0%; MIC ([3]; Enterobacter cloacae, read-out: MIC mero, µg/mL, no inhibitor): 8 µg/mL; MIC ([2]; Escherichia coli, read-out: MIC mero, µg/mL, no inhibitor): 4 µg/mL; MIC [5, 8]: 32 µg/mL; fraction of strains susceptible [7]: less than 10%

Reference: patent EP3670512A1, “DIAZABICYCLOOCTANONES AS INHIBITORS OF SERINE BETA-LACTAMASES” (Antabio SAS, priority 2018, dated 2020)
